In PMC8051587 (ACS chemical biology, 2020):
Several values for one entry are separate records, joined by “and”; a condition that tells them apart may be missing. Identical values can stand only once. Like-named read-outs stand apart in the source and are kept apart here.

Assays:
[1] = test system: A/WSN/33 virus (with naturally occurring M2 N31); assay: microbe, parasite or virus in culture; type: cell-based; details: for EC50: read-out: EC50 ± SD
A/WSN/33 M2 N31S virus = type: cell-based, influenza A virus; details: for EC50: read-out: EC50 ± SD
[2] = target: T1, full-length A/Udorn/72 M2 S31N (Influenza A virus, UniProt P0DOF5, S31N)
[3] = target: T1, full-length A/Udorn/72 M2 S31N; details: cited from earlier work
[4] = CPE inhibition assay, MDCK cells, amantadine-resistant A/WSN/33 (M2 N31)

In the case of `NC12CC3CC(CC(C3)C1)C2` [Amantadine, amantadine], the “EC50 ± SD” value [1, 4] is reported as “not active” and the EC50 (A/WSN/33 M2 N31S virus) is reported as 250 ± 70 nM.
For `c1csc(-c2cc(CNC34CC5CC(CC(C5)C3)C4)on2)c1` [Compound 6], the EC50 [1, 4] was 153 nM, the “Blockage Eliminated in Wash Out(%)” value [2] was 6.8 ± 1.2% and the Kd [2] was 7500 ± 300 nM. The “Percent Block” value [2] was 99.2% and 99 ± 1%, the kon [2] was 2280 ± 150 M⁻¹ s⁻¹ and the “EC50 ± SD” value (A/WSN/33 M2 N31S virus) was “not active”. For the same molecule, the IC50 ([3]; read-out: IC50 in TEVC with M2 S31N, previously reported) was 16000 nM and the Kd ([3]; read-out: Kd (literature value, footnote g), footnote to the Kd value, ref [3]) was 16000 nM.
`CCOC(=O)C1=C[C@@H](OC(CC)CC)[C@H](NC(C)=O)[C@@H](N)C1` [Oseltamivir] gave an EC50 ([1]; Influenza A virus, WSN, MDCK) of 10 ± 10 nM and an EC50 (A/WSN/33 M2 N31S virus) of 30 ± 20 nM.
